Data from patent US20240139136A1, “METHODS AND FORMULATIONS FOR TOPICAL ADMINISTRATION OF GABAPENTINOIDS” (VYLUMA INC., priority 2021, published 2024).

Test system: rats with post-surgical corneal injuries
Assay: Capsaicin-induced ipsilateral paw (eye) wipes in rats with post-surgical corneal injury
Assay type: in vivo
Details: 3% ophthalmic formulation, topical; challenge with 40 μL 0.1% capsaicin 15 minutes after administration; compared with capsaicin-alone baseline; FIG. 1
Experimental: Test ophthalmic formulations were administered to rats with post-surgical corneal injuries to test the efficacy of the formulations in treating corneal pain. A negative control was established by treating all animals with artificial tears (AT) and counting ipsilateral paw wipes for 60 seconds (FIG. 1, Baseline (Pre-induction)). 20 minutes later, a positive control was established by treating all animals with 40 μL 0.1% capsaicin and counting ipsilateral paw wipes for 60 seconds (FIG. 1, Baseline). Eyes were then flushed with balanced salt solution (BSS) and AT. 20 minutes later, all animals were treated with the test ophthalmic formulation (0.5% proparacaine (positive control), 3% nalbuphine, 3% pregabalin, or 3% ketamine). 15 minutes later, all animals were treated with 40 μL 0.1% capsaicin, and ipsilateral paw wipes were counted for 60 seconds (FIG. 1, 15 Minutes).

Row | SMILES | eye wipes (ipsilateral paw wipes counted for 60 seconds)
1 | CNC1(c2ccccc2Cl)CCCCC1=O (stereo not drawn) [ketamine] | borderline response
2 | Oc1ccc2c3c1O[C@H]1[C@@H](O)CC[C@@]4(O)[C@@H](C2)N(CC2CCC2)CC[C@]314 [nalbuphine] | significant decrease
3 | CC(C)C[C@H](CN)CC(=O)O [pregabalin] | significant decrease
